Structures can show the parent of a compound that is named as a salt.
System: radiation-induced emesis in the ferret
Test: Inhibition of radiation-induced emesis in the ferret
Type: in vivo
Conditions: compound administered 1.5 hours prior to irradiation
Protocol: In this model of emesis the onset of retching and vomiting occurs approximately 20 minutes after whole body irradiation (2 Grey.ident.200 Rads). The test compound is administered (e.g. i.p, p.o., i.v., s.c) immediately after irradiation and its effect on emesis determined by comparison with appropriate controls.
Alternatively, the test compounds may be administered before irradiation or before treatment with an emetogen, for example 1.5, 3 or 6 hours before irradiation.

SMILES | inhibition of radiation-induced emesis (0.1 mg/kg s.c.) | inhibition of radiation-induced emesis (0.03 mg/kg s.c.)
COc1ccc(-n2cnnn2)cc1CN[C@H]1CCCN[C@H]1c1ccccc1 [Example 2] | inhibited radiation-induced emesis | –
COc1ccc(-n2nnnc2C(F)(F)F)cc1CN[C@H]1CCCN[C@H]1c1ccccc1 [Example 7, [2-Methoxy-5-(5-trifluoromethyl-tetrazol-1-yl)-benzyl]-(2S,3S]-2-phenyl-piperidin-3-yl)-amine dihydrochloride] | – | inhibited radiation-induced emesis

— US5843966A, “Piperidine derivatives” (Glaxo Group Limited, priority 1993, dated 1998)
